US7763441B2, “Modulators of gluconeogenesis” (Wyeth, priority 2006, dated 2010)
Where two headings read alike, the source gives them in different places. Values belong to the molecule of their own block, whether it stands above or below them.

What was measured:
[1] = biological target: T1, p38 (Rattus norvegicus, UniProt P70618); experiment: Western blot of p38 phosphorylation in serum starved H4IIE cells; type: cell-based; conditions: 2 hours
T1 construct: addition of cAMP to serum starved H4IIE cells for 2 hours leads to an increase in the phosphorylation of p38; endogenous in cells; host or cells: H4IIE rat hepatoma cells
T1 sequence (P70618 whole entry): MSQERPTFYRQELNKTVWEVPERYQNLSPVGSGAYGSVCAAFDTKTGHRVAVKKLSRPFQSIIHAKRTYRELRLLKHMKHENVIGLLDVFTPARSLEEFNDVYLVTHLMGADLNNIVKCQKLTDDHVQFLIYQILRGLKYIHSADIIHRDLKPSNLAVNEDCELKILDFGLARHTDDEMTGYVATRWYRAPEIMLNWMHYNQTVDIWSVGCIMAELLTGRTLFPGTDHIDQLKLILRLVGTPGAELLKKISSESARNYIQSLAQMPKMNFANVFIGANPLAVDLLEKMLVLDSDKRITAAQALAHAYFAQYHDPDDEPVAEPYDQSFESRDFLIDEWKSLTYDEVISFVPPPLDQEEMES
Description: (§1) Panel A is a Western blot of H4IIE cells starved for 6 hours and then treated as indicated by the chart for 2 hours. […] is a specific p38 chemical inhibitor. LPS is included as a positive control of p38 activation.
(§2) FIG. 7A includes a Western blot probed with anti-p38 or anti-phosphor-p38 antibodies (Cell Signaling Technology) at a 1:1000 dilution.

[2] = tested on: EGR1; conditions: Bauer et al. 2005; cited from earlier work
[3] = tested on: DUSP4 message; conditions: AML12, 500 μM AICAR
Description: (§3) Each gene is represented by a single row and each sample, in triplicate at each time point, by a column. […] The mean expression±STD of DUSP4 (qualifier #1428834_at) and EGR1 (qualifier #1417065_at) are illustrated graphically as well as highlighted in yellow on the cluster.
(§4) AML12 cells were maintained in DMEM/F12 medium containing 10% FCS, […], 5 ng/ml selenium and 40 ng/ml dexamethasone.
(§5) Double-stranded cDNA was synthesized starting with 5 μg of total RNA from the cells using the SuperScript System (Invitrogen, Carlsbad, Calif.). The cDNA was purified by filtration through Multiscreen filter plate (Millipore), and transcribed in vitro using T7 RNA polymerase (Epicentre, Madison, Wis.) and biotinylated nucleotides (Perkin-Elmer, Boston, Mass.). Hybridization buffer containing the spike pool reagent was added to each of the fragmented cRNA mixtures and each sample was hybridized to the Mouse Genome 430 2.0 array ([…]) or Rat Genome 230 2.0 array (RAE230) (Affymetrix, Santa Clara) at 45° C. for 18 hours as recommended by the manufacturer. The hybridized chips were washed and stained using Affymetrix Fluidics Station 450 and the EukGE-WS2v4—450 protocol as recommended by the manufacturer. The staining was performed using streptavidin-phycoerythrin conjugate (SAPE; Molecular Probes, Eugene, Oreg.), followed by biotinylated antibody against streptavidin (Vector Laboratories, Burlingame, Calif.), and then SAPE. The chips were scanned using an Affymetrix Genechip Scanner and .cel files were generated with Affymetrix Microarray Suite 5.0 (MAS 5.0) software.
(§6) Using normalized data, after removing lowly expressed genes, we performed ANOVA analysis.

[4] = tested on: EGR1 message; conditions: AML12, 500 μM AICAR
Description: as §3, §4, §5, §6

[5] = tested on: G6P and PEPCK expression; conditions: rat hepatoma cells or primary hepatocytes (Lochhead et al. 2000); cited from earlier work
[6] = tested on: rat DUSP4 promoter EGR1 site; conditions: H4IIE, AICAR 2 or 6 hours
Description: Arrows indicate sites of primers used for chromatin immunoprecipitation assay (−72 to −261 bp from the transcriptional start site).
To cross-link protein and DNA, formaldehyde was added at a 1% (vol/vol) concentration to H4IIE cells in a 100 mm dish. Fixation proceeded for 10 min at room temperature with gentle shaking and was stopped with the addition of glycine to a final concentration of 0.125M, and then the mixture was incubated at room temperature for 5 min. The cells were then washed twice with cold phosphate-buffered saline (PBS), harvested, and washed once with PBS containing PMSF. The cell pellet was lysed with immunoprecipitation assay lysis buffer (150 mM NaCl, 1% NP-40, 0.5% deoxycholate, 0.1% sodium dodecyl sulfate [SDS], 50 mM Tris [pH 8], 5 mM EDTA and protease inhibitors [1 mM PMSF, 10 μg of aprotinin/ml, 10 μg of leupeptin/ml]) and incubated on ice for 10 min. The resulting lysate was sonicated to give chromatin of an average length of 600 to 1,000 bp. The lysate was then microcentrifuged at 14,000 rpm for 10 min at 4° C. The lysate was then precleared with 50 μl of protein A beads (IPA 400; Repligen) for 15 min. Immunoprecipitations were performed overnight with 2 μg of antibody in a total volume of 500 μl at 4° C. […] A 5 μl aliquot was analyzed by PCR with Vent polymerase (NEB). […]

[7] = tested on: Fao hepatoma cells; experiment: Glucose production assay in Fao cells; type: cell-based; conditions: cAMP plus dexamethasone, 500 μM AICAR
Description: For the experiment shown in panel A, Fao cells were transfected with either EGR1 or DUSP4 siRNA Smartpools. […] The cells were then cultured with phenol-red and glucose free RPMI1640 with 20 mM lactate and 2mM pyruvate. After 3 hours the media was collected and glucose output was determined. The data are presented as relative glucose production with the untreated transfected cells' glucose output set as 1. The asterisk indicates key changes between samples. P-values of all changes are ≦0.01 as determined by T-test. Panel B contains Western blots of EGR1 and DUSP4 or representative samples from the glucose production assay following transfection with the indicated siRNA Smartpools. The tubulin blot is included as a loading control.
1 million Fao cells cultured in RPMI1640 with 10% FCS were transfected with siGenome SMARTpool reagents for EGR1 (#M-100247-00), DUSP4 (#M-098966-00), or siCONTROL Non-Targeting siRNA (Dharmacon) using Optifect (Invitrogen) at 25 nM final concentration. […] Medium was collected 5 hours later and subjected to glucose measurement using the Amplex® Red Glucose/Glucose Oxidase Assay Kit (Molecular Probes). Cells were lysed and protein concentration was determined. The glucose output rate was normalized by cellular protein concentration and expressed as μg glucose/mg protein/5 hr. […]

[8] = tested on: DUSP4 protein; conditions: H4IIE
Description: (§7) As in FIG. 2, the anti-tubulin blot is a loading control.
Lysates were prepared with a buffer containing 20 mM Tris (pH 7.5), 150 mM NaCl, 1 mM EDTA, 1 mM EGTA, 1% Triton X-100, 2.5 mM sodium pyrophosphate, 1 mM β-glycerophosphate, 1 mM sodium vanadate, and 1 μg of leupeptin/ml. 20 μg of lysate for each sample was run on NuPAGE 10% polyacrylamide bis/tris gels (Invitrogen) and transferred to PVDF membrane. Following blocking with 5% milk in TBS, anti-EGR1 (SC-110, Santa Cruz) at 1:1000 or anti alpha-tubulin (Abcam) at 1:2000 was blotted in TBS with 0.1% Tween. Goat anti-mouse HRP (Jackson Immuno-Research) was used at 1:5000 and blots were visualized by using enhanced chemiluminescence (NEN).
(§8) Taqman was utilized since the DUSP4 probe set on the RAE430 2.0 array was not as sensitive as the DUSP4 set on the MOE430 2.0 array.

[9] = tested on: DUSP4 mRNA; conditions: H4IIE, AICAR
Source text: as §7, §8

[10] = tested on: EGR1 expression; conditions: H4IIE, AICAR
Description: The anti-tubulin blot is a loading control.
as §5
Total RNA was isolated from these cells and hybridized on the RAE430 2.0 array and analyzed in the same manner as the AML12 cells.

[11] = tested on: rat PEPCK promoter; experiment: PEPCK-SEAP reporter assay in H4IIE cells; type: cell-based
Description: FIG. 5 schematically depicts the effects of EGR1 and DUSP4 expression levels on PEPCK promoter activity. For the experiments shown in panels A and B, H4IIE hepatocytes were transfected with the PEPCK-SEAP reporter plasmid and either DUSP4 or EGR1 expression plasmids or DUSP4 or EGR1 siRNA Smartpools. 24 hours after transfection the media were changed to 0.5%FBS/DMEM for 5 hours. […] Panel A depicts the effects of EGR1 modulation on PEPCK promoter activity; panel B depicts the effects of DUSP4 modulation on PEPCK promoter activity.
as §1
The rat PEPCK promoter (−548 to +73) was amplified from rat genomic DNA using primers 5′-[…]-3′ (SEQ ID NO:8) and 5′-[…]-3′ (SEQ ID NO:9) (Xu et al. (2003)) J. Biol. Chem. 278:30187-30192). The human G6P promoter (−1227 to +57) was amplified from human genomic DNA using primers: 5′-[…]-3′ (SEQ ID NO:10) and 5′-[…]-3′ (SEQ ID NO:11). The promoters were subsequently cloned into XhoI and HindIII sites of pSEAP-BASIC vector (Clontech).
H4IIE cells were seeded in 24-well plates and transfected at 90% confluence using Tfx-50 Reagent (Promega). 0.9 μg of each SEAP reporter and 0.2 μg of pCMV-β-gal (BD Biosciences) were included. 0.4 μg of pCMV-XL5-human-DUSP4 (NM_001394, Origene) or pCMV-Sport6-human EGR1 (BC073983, Open Biosystems), or pMEV2HA-P38-WT and P38-EE (Biomyx), or empty pCMV-Sport6 were included. SiGenome Smartpool reagents were included at […]. […] 60 μl of the media was utilized for the SEAP assay (Great EscAPe SEAP Kit, BD Biosciences) and cell lysate was used for β-gal assay (Luminescent β-galactosidase detection kit, BD Biosciences).

[12] = tested on: JNK; conditions: H4IIE cells, data not shown
Source text: Members of the DUSP family show differing specificities for the MAPK family of kinases. DUSP4 has been previously shown to dephosphorylate and inactivate the MAPK family members ERK and JNK, but not p38.
as §2

- cAMP-induced phosphorylation of p38 (Western blot) [1]: inhibited
Molecule: SB205830

Molecule: CCCCCCCCCCCCCC(=O)O[C@@H]1[C@@H](C)[C@@]2(O)[C@@H](C=C(CO)C[C@]3(O)C(=O)C(C)=C[C@@H]23)[C@@H]2C(C)(C)[C@]12OC(C)=O [TPA, 12-O-tetradecanoylphorbol-13-acetate]
- EGR1 biosynthesis [2]: strongly upregulates EGR1 biosynthesis

- cAMP-induced phosphorylation of p38 (Western blot) [1]: inhibited
Molecule: NC(=O)c1ncn([C@@H]2O[C@H](CO)[C@@H](O)[C@H]2O)c1N [AICAR]
- DUSP4 message increase relative to untreated controls ([3]; 2 hours): 4 fold
- DUSP4 message increase relative to untreated controls ([3]; 6 hours): 6 fold
- DUSP4 message increase relative to untreated controls ([3]; 24 hours): 5 fold
- EGR1 increase relative to control ([4]; 2 hours): 3 fold
- EGR1 increase relative to control ([4]; 6 hours): 3 fold
- EGR1 increase relative to control ([4]; 24 hours): 2 fold
- Expression of G6P and PEPCK [5]: inhibits expression G6P and PEPCK
- EGR1 site of DUSP4 promoter amplified after anti-EGR1 chromatin immunoprecipitation (189 bp PCR product) [6]: amplified
- Glucose output after inhibition, distance from untreated levels [7]: ≤ 30%
- Time of AICAR treatment within which DUSP4 is induced ([8]; AICAR): ≤ 2 h
- DUSP4 protein level (Western blot) ([8]; AICAR time course, decrease to more basal levels at 12 hours): increase of DUSP4 protein at 2 and 6 hours
- DUSP4 message increase ([9]; 2 hours): 20 fold
- DUSP4 message increase ([9]; 6 hours): 4 fold
- DUSP4 message increase ([9]; 24 hours): 4 fold
- EGR1 expression increase relative to control ([10]; 2 hours): 6 fold
- EGR1 expression increase relative to control ([10]; 6 hours): 5 fold
- EGR1 expression increase relative to control ([10]; 24 hours): 3 fold
- Inhibition of PEPCK activation at low AICAR concentration ([11]; 100 μM AICAR by itself): not sufficient to inhibit PEPCK activation
- PEPCK transcription (activation) ([11]; 100 μM AICAR, without exogenous EGR1): 12 fold
- Repression of cAMP and dexamethasone activation of PEPCK reporter ([11]; AICAR, control siRNA included): fully repressed
- Effect on cAMP activation of the PEPCK promoter ([11]; FIG. 7B): repress cAMP activation of the PEPCK promoter
- Inhibition of cAMP and dexamethasone activation of the PEPCK promoter ([11]; PEPCK-SEAP, AICAR 500 μM or DUSP4 expression vector): approximately 36 fold
- JNK activity [12]: not inhibited
